Laboratory results as given in patent publication US11779630B2, “Peptides and methods of using the same” (SERPIN PHARMA, LLC, priority 2020, dated 2023).

What was measured:
[1] = system: NFκB; assay: NFκB reporter assay (THP1-XBlue-MD2-CD14 cells) stimulated with LPS, SEAP readout; settings: peptide 50 μg/ml, LPS 5 ng/ml, overnight (FIG. 1)
[2] = system: mice, lethal endotoxemia; assay: Mouse model of lethal endotoxemia (LPS 15 mg/kg); format: in vivo
Protocol: FIG. 27A: The mice were treated with SP16 or vehicle and challenged with a lethal dose of LPS (15 mg/kg) and assessed for survival over 72 hours.

Substance	NFκB activity (NFκB inducible SEAP in supernatant) [1]	survival between 30 and 42 hours [2] [%]	survival by 72-hrs ([2]; p<0.001 vs. vehicle) [%]
RRRVKFNKPFVFLMIEQNTKRRR (RRRVKFNKPFVFLMIEQNTKRRR; peptide derivative) [SP21]	NFkB inhibition increased as well relative to SP16		
R R R V K F N K P F V F L M R R R (RRRVKFNKPFVFLMRRR; peptide derivative) [SP22]	NFκB activity was significantly reduced		
R R R V R F N R P F L R R R (RRRVRFNRPFLRRR; peptide derivative) [SP32]	could not be restored with the Poly arginine flanks		
V K F N K P F V F L M (VKFNKPFVFLM; listed as Homo sapiens) [SP20]	did not have an inhibitory effect		
V K F N K P F V F L M I E Q N T K (VKFNKPFVFLMIEQNTK; listed as Homo sapiens) [SP16]	capable of reducing NFκB activity	100	60
V R F N R P F L (VRFNRPFL; peptide derivative) [SP31]	anti-inflammatory activity of the peptide was lost		
